Columns and labels:
Type in all cases: biochemical
YecD [1] = target: YecD (Escherichia coli, UniProt P0ADI7, F23A/G134C, form not given); assay: hydrolysis kinetics, chiral HPLC; settings: standard assay: 50 mM Tris-HCl pH 8.0, 35 °C, racemic γ-lactam
YecD [2] = target: YecD (Escherichia coli, UniProt P0ADI7, V56I/W104E/G134C, form not given); assay: hydrolysis kinetics, chiral HPLC; settings: standard assay: 50 mM Tris-HCl pH 8.0, 35 °C, racemic γ-lactam
YecD [3] = target: YecD (Escherichia coli, UniProt P0ADI7, G134C, form not given); assay: hydrolysis kinetics, chiral HPLC; settings: standard assay: 50 mM Tris-HCl pH 8.0, 35 °C, racemic γ-lactam
Chain of YecD (Escherichia coli, UniProt P0ADI7, G134C, form not given) (P0ADI7 whole entry G134C, form open): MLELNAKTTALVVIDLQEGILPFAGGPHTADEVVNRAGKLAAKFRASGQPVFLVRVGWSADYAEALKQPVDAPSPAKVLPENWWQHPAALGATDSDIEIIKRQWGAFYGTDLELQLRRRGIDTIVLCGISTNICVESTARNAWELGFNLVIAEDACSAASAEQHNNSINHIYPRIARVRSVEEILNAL

YecD [4] = target: YecD (Escherichia coli, UniProt P0ADI7, V56A/G134C, form not given); assay: hydrolysis kinetics, chiral HPLC; settings: standard assay: 50 mM Tris-HCl pH 8.0, 35 °C, racemic γ-lactam
Chain of YecD (Escherichia coli, UniProt P0ADI7, V56A/G134C, form not given) (P0ADI7 whole entry V56A/G134C, form open): as the sequence (P0ADI7 whole entry G134C, form open) above, with V56A counted along it

RutB = target: T1, RutB (Escherichia coli, UniProt P75897); assay: γ-lactamase activity screen, chiral HPLC; settings: 50 mM Tris-HCl pH 8.0, 35 °C, 4.6 mM racemic γ-lactam
T1 sequence (P75897 1-230): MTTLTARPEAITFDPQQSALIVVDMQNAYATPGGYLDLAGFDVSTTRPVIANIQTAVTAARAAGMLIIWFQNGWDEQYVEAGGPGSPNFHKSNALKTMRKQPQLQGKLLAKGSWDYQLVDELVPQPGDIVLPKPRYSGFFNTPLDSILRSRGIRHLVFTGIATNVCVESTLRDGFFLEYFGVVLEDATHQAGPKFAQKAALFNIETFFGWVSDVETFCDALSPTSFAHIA

YecD [5] = target: YecD (Escherichia coli, UniProt P0ADI7, W104F/G134C, form not given); assay: hydrolysis kinetics, chiral HPLC; settings: standard assay: 50 mM Tris-HCl pH 8.0, 35 °C, racemic γ-lactam
Chain of YecD (Escherichia coli, UniProt P0ADI7, W104F/G134C, form not given) (P0ADI7 whole entry W104F/G134C, form open): as the sequence (P0ADI7 whole entry G134C, form open) above, with W104F counted along it

YecD [6] = target: YecD (Escherichia coli, UniProt P0ADI7, W104A/G134C, form not given); assay: hydrolysis kinetics, chiral HPLC; settings: standard assay: 50 mM Tris-HCl pH 8.0, 35 °C, racemic γ-lactam
Chain of YecD (Escherichia coli, UniProt P0ADI7, W104A/G134C, form not given) (P0ADI7 whole entry W104A/G134C, form open): as the sequence (P0ADI7 whole entry G134C, form open) above, with W104A counted along it

YecD [7] = target: YecD (Escherichia coli, UniProt P0ADI7, W104Y/G134C, form not given); assay: hydrolysis kinetics, chiral HPLC; settings: standard assay: 50 mM Tris-HCl pH 8.0, 35 °C, racemic γ-lactam
Chain of YecD (Escherichia coli, UniProt P0ADI7, W104Y/G134C, form not given) (P0ADI7 whole entry W104Y/G134C, form open): as the sequence (P0ADI7 whole entry G134C, form open) above, with W104Y counted along it

Chain of YecD (Escherichia coli, UniProt P0ADI7, F23A/G134C, form not given) (P0ADI7 whole entry F23A/G134C, form open): as the sequence (P0ADI7 whole entry G134C, form open) above, with F23A counted along it
Chain of YecD (Escherichia coli, UniProt P0ADI7, V56I/W104E/G134C, form not given) (P0ADI7 whole entry V56I/W104E/G134C, form open): as the sequence (P0ADI7 whole entry G134C, form open) above, with V56I, W104E counted along it

## O=C1N[C@@H]2C=C[C@H]1C2 (racemic) [( +) γ-lactam, 2-azabicyclo [2.2.1] hept-5-en-3-one]
YecD [1]
  Km: 67 ± 4 mM
YecD [2]
  Km: 16 ± 2 mM
YecD [3]
  Km: 72 ± 4 mM
YecD [4]
  Km: 70 ± 3 mM
RutB
  γ-lactamase activity screen, chiral HPLC: Screening for ( +) γ-lactamase activity revealed that only RutB exhibited this catalytic function
YecD [5]
  Km: 74 ± 3 mM
YecD [6]
  Km: 79 ± 3 mM
YecD [7]
  Km: 36 ± 3 mM
